Among the data in ChEMBL document CHEMBL1765058, “Structural basis for the interaction between carbonic anhydrase and 1,2,3,4-tetrahydroisoquinolin-2-ylsulfonamides” (J Med Chem, 2011) are Ki values, retold here.

In the test the target is Carbonic anhydrase 7 (Homo sapiens, UniProt P43166). Description: Inhibition of human recombinant CAH7.

A word on the Ki: it is the equilibrium dissociation constant of an inhibitor or competing ligand from its target.

Sequence of Carbonic anhydrase 7 (P43166 whole entry): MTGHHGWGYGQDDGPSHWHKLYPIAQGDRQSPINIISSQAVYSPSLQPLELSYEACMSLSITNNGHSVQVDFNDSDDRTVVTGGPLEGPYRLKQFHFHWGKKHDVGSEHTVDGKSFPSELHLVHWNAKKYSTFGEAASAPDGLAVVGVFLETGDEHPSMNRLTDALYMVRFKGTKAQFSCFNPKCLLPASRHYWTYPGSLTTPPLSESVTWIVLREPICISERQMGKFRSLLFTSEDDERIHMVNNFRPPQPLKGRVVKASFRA

As for `COc1cc2c(cc1OC)C(C)N(S(N)(=O)=O)CC2` (stereo unspecified), the Ki is 6.4 nM.
